Read-outs that look alike come from different tables or passages of the source.
Columns and labels:
[1] = tested on: Trypanosoma brucei Squib-427 strain (suramin-sensitive); experiment: Antitrypanosomal activity, T. brucei trypomastigotes, resazurin; assay type: cell-based; settings: for IC50: 72 h, pure compounds; for T. brucei SI: selectivity index vs MRC-5 cytotoxicity
Method: (§1) The integrated panel of microbial screens and standard screening methodologies were adopted as previously described. All assays were performed in triplicate at the Laboratory of Microbiology, Parasitology and Hygiene at the University of Antwerp (Belgium). […] Selectivity of activity was assessed by simultaneous evaluation of cytotoxicity on a fibroblast (MRC-5) cell line.
(§2) Trypanosoma brucei Squib-427 strain (suramin-sensitive) was cultured at 37 °C and 5% CO2 in Hirumi-9 medium, supplemented with 10% fetal calf serum (FCS). About 1.5 × 10^4 trypomastigotes/well were added to each well and parasite growth was assessed after 72 h at 37 °C by adding resazurin [35]. For Chagas disease, T. cruzi Tulahuen CL2 (benznidazole-sensitive) was maintained on MRC-5 cells in minimal essential medium (MEM) supplemented with 20 mM L-glutamine, 16.5 mM sodium hydrogen carbonate and 5% FCS. In the assay, 4 × 10^3 MRC-5 cells and 4 × 10^4 parasites were added to each well and after incubation at 37 °C for 7 days, Parasite growth was assessed by adding the […]. The color reaction was read at 540 nm after 4 h and absorbance values were expressed as a percentage of the blank controls.

L. donovani = settings: cited from earlier work
[2] = tested on: L. infantum MHOM/MA(BE)/67 amastigotes; experiment: Antileishmanial activity, intracellular amastigotes in primary peritoneal mouse macrophages; assay type: cell-based, Leishmania infantum; settings: for IC50: pure compounds, intracellular amastigotes, 5 days; for L. infantum SI: selectivity index vs MRC-5 cytotoxicity
Method: The integrated panel of microbial screens and standard screening methodologies were adopted as previously described. All assays were performed in triplicate at the Laboratory of Microbiology, Parasitology and Hygiene at the University of Antwerp (Belgium). […] Selectivity of activity was assessed by simultaneous evaluation of cytotoxicity on a fibroblast (MRC-5) cell line. […] L. infantum MHOM/MA(BE)/67 amastigotes were collected from the spleen of an infected donor hamster and used to infect primary peritoneal mouse macrophages. To determine in vitro antileishmanial activity, 3 × 10^4 macrophages were seeded in each well of a 96-well plate. After 2 days outgrowth, 5 × 10^5 amastigotes/well, were added and incubated for 2 h at 37 °C. Pre-diluted plant extracts were subsequently added and the plates were further incubated for 5 days at 37 °C and 5% CO2. Parasite burdens (mean number of amastigotes/macrophage) were microscopically assessed on 500 cells after Giemsa staining of the […] expressed as a percentage of the blank controls without plant extract.

[3] = tested on: T. cruzi Tulahuen CL2 (benznidazole-sensitive); experiment: Antitrypanosomal activity, T. cruzi on MRC-5 cells; assay type: cell-based, Trypanosoma cruzi; settings: for IC50: pure compounds, 7 days; for T. cruzi SI: selectivity index vs MRC-5 cytotoxicity
Method: as §1, §2

[4] = tested on: Chloroquine-resistant P. falciparum K 1-strain; experiment: Antiplasmodial activity, Malstat (pLDH) assay; assay type: cell-based, Plasmodium falciparum; settings: for IC50: 72 h, read-out: P. falciparum IC50; for P. falciparum SI: selectivity index vs MRC-5 cytotoxicity
Method: as §1
Chloroquine-resistant P. falciparum K 1-strain was cultured in human erythrocytes O^+ at 37 °C under a low oxygen atmosphere (3% O2, 4% CO2, and 93% N2) in RPMI-1640, supplemented with 10% human serum. Infected human red blood cells (200 μL, 1% parasitaemia, 2% haematocrit) were added to each well and incubated for 72 h. After incubation, test plates were frozen at −20 °C. Parasite multiplication was measured using the Malstat assay, a colorimetric method based on the reduction of 3-acetyl pyridine adenine dinucleotide (APAD) by parasite-specific lactate-dehydrogenase (pLDH).

[5] = Cytotoxicity against MRC-5 cells, resazurin; assay type: cell-based; settings: human, MRC-5 SV2 fibroblast cells, pure compounds
Method: as §1
MRC-5 SV2 cells were cultivated in MEM, supplemented with L-glutamine (20 mM), 16.5 mM sodium hydrogen carbonate and 5% FCS. For the assay, 10^4 MRC-5 cells/well were seeded onto the test plates containing the pre-diluted sample and incubated at 37 °C and 5% CO2 for 72 h. Cell viability was assessed fluorimetrically after 4 h of addition of resazurin. Fluorescence was measured (excitation 550 nm, emission 590 nm) and the results were expressed as % reduction in cell viability compared to control.

P. falciparum = settings: cited from earlier work; for IC50: converted value in brackets, read-out: antiplasmodial IC50
T. cruzi = tested on: T. cruzi; design: method as in PMID 12802734; settings: ref 26; cited from earlier work
T. brucei = tested on: T. brucei; design: method as in PMID 21782916, PMID 17637068; settings: ref 24, 25, cited from earlier work
[6] = tested on: peripheral blood mononuclear cells; design: method as in PMID 22468852; settings: ref 31; cited from earlier work
[7] = Leishmania infantum, Macrophage, 120 h
[8] = Trypanosoma cruzi, TULAHUEN, MRC5, 168 h
[9] = Plasmodium falciparum, pure compounds, K1 strain
[10] = at the highest concentration tested (64 µg/mL)

Cc1ccc(C(=O)Nc2ccc(S(=O)(=O)O)c3cc(S(=O)(=O)O)cc(S(=O)(=O)O)c23)cc1NC(=O)c1cccc(NC(=O)Nc2cccc(C(=O)Nc3cc(C(=O)Nc4ccc(S(=O)(=O)O)c5cc(S(=O)(=O)O)cc(S(=O)(=O)O)c45)ccc3C)c2)c1 [Suramine, reference compound]
IC50 ([1]; Trypanosoma brucei): 0.03 ± 0.01 µM

CCCCCCCCCCCCCCCCOP(=O)([O-])OCC[N+](C)(C)C [Miltefosine, reference compound]
IC50 (L. donovani; ref 31): 9.31 µM | IC50 [2, 7]: 10.4 ± 2.1 µM

O=C(Cn1ccnc1[N+](=O)[O-])NCc1ccccc1 [Benznidazole, reference compound]
IC50 [3, 8]: 1.9 ± 0.3 µM

CCN(CC)CCCC(C)Nc1ccnc2cc(Cl)ccc12 (stereo not shown) [Chloroquine, reference compound]
IC50 ([4]; Plasmodium falciparum): 0.3 ± 0.05 µM

C[C@H]1[C@H](C)CC[C@@]2(C)[C@@H]1C1=CC[C@@H]3[C@@]4(C)CC[C@H](O)C(C)(C)[C@@H]4CC[C@@]3(C)[C@]1(C)C[C@@H]2O [Cmpd. 4, urs-12-ene-3β,16β-diol]
IC50 [4, 9]: 9.3 to 9.9 µM | IC50 ([4]; pure compounds, K1 strain): 9.7 ± 3.2 µM | P. falciparum SI [4]: >6.6 | P. falciparum SI ([4]; listed as Brein (4)): > 6.5 | IC50 at 72 h [5]: > 64 µM | melting point: 221 °C | IC50 ([1]; Trypanosoma brucei): 2.3 ± 0.4 µM | T. brucei SI [1]: >27.8 | T. brucei SI ([1]; listed as Brein (4)): > 27.8 | IC50 [3, 8]: 9.3 to 9.9 µM | IC50 [3]: 9.9 ± 2.6 µM | T. cruzi SI [3]: >6.5 | T. cruzi SI ([3]; listed as Brein (4)): > 6.5 | IC50 [2, 7]: 9.3 to 9.9 µM | IC50 [2]: 9.3 ± 2.2 µM | L. infantum SI [2]: >6.9 | L. infantum SI ([2]; listed as Brein (4)): > 6.5

C[C@H]1[C@H](C)CC[C@]2(C(=O)O)CC[C@]3(C)C(=CC[C@@H]4[C@@]5(C)CC[C@H](O)C(C)(C)[C@@H]5CC[C@]43C)[C@H]12 [Cmpd. 3, 3β-hydroxy-urs-12-en-28-oic acid]
IC50 [4, 9]: 29.7 ± 5.9 µM | P. falciparum SI [4]: <1 | IC50 (P. falciparum; ref 28): 6.8 µM | IC50 (P. falciparum; ref 29): 10.7 µM | antiplasmodial IC50 (P. falciparum; ref 28): 3.1 µg/mL | antiplasmodial IC50 (P. falciparum; ref 29): 4.9 µg/mL | IC50 at 72 h [5]: 11.4 ± 2.1 µM | IC50 (T. cruzi): 21 µM | IC50 ([1]; Trypanosoma brucei): 2.2 ± 0.6 µM | T. brucei SI [1]: 5.2 | IC50 (L. donovani; converted value in brackets, ref 27): 7.6 µM | L. donovani IC50 (L. donovani; ref 27): 3.5 µg/mL | IC50 (T. brucei; converted value in brackets): 2.2 µM | T. brucei IC50 (T. brucei): 1.0 ± 0.2 µg/mL | IC50 [3, 8]: 8.8 ± 2.3 µM | T. cruzi SI [3]: 1.3 | IC50 [2, 7]: 7.4 ± 1.9 µM | L. infantum SI [2]: 1.5

C[C@@H]1CC[C@]2(C)CC[C@]3(C)C(=C[C@@H](O)C4[C@@]5(C)CC[C@H](O)C(C)(C)C5CC[C@]43C)C2[C@H]1C (stereo partly drawn) (hydrate or solvate) [Cmpd. 5, 3β,11α-Dihydroxyurs-12-ene]
melting point: 205 °C

C[C@@H]1CC[C@]2(C)CC[C@]3(C)C(=C[C@@H](O)C4[C@@]5(C)CC[C@H](O)C(C)(C)C5CC[C@]43C)C2[C@H]1C (stereo partly drawn) [Cmpd. 5, 3β,11α-Dihydroxyurs-12-ene]
IC50 [4, 9]: 23.9 ± 5.7 µM | IC50 at 72 h [5]: > 64 µM | IC50 ([1]; Trypanosoma brucei): 7.9 µM | IC50 [1]: 7.8 ± 1.8 µM | T. brucei SI [1]: >8.2 | IC50 [3, 8]: 8.1 ± 1.8 µM | T. cruzi SI [3]: >7.9 | IC50 [2, 7]: 3.2 ± 0.9 µM | L. infantum SI [2]: >20 | L. infantum SI ([2]; listed as Compound 5): > 20

C[C@@H]1CCC23CC[C@]4(C)[C@@](C=CC5[C@@]6(C)CC[C@H](O)C(C)(C)C6CC[C@]54C)(OC2=O)C3[C@H]1C (stereo partly shown) [Cmpd. 6, 3-Hydroxy-13,28-epoxyurs-11-en-28-one]
IC50 [4, 9]: > 64 µM | antiprotozoal activity (P. falciparum) [4, 10]: devoid of any antiprotozoal activity | IC50 at 72 h [5]: > 64 µM | cytotoxicity towards peripheral blood mononuclear cells [6]: without cytotoxicity | IC50 ([1]; Trypanosoma brucei): 40.9 ± 8.1 µM | IC50 (L. donovani; ref 31): 192 µM | IC50 [3, 8]: > 64 µM | antiprotozoal activity (T. cruzi) [3, 10]: devoid of any antiprotozoal activity | IC50 [2, 7]: > 64 µM | antiprotozoal activity (L. infantum) [2, 10]: devoid of any antiprotozoal activity
